Test results reported in patent publication US20240158348A1, “HERBICIDAL CYCLIC AMIDES N-SUBSTITUTED WITH A HALOALKYLSULFONYLANILIDE GROUP” (FMC Corporation, priority 2021, published 2024).

Assays:
Format in all cases: in vivo
[1] = tested on: goosegrass (Eleusine indica); assay: Test C postemergence, goosegrass; settings: visual injury, 0 to 100 scale (0 no effect, 100 complete control)
Method in brief: (§1)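 Plants grown in a sand and loam soil blend received the formulated test chemicals either as a preemergence soil-directed spray or postemergence at 2 to 10 cm height. After 10 or 12 greenhouse days, injury was assessed visually, with 100 meaning complete control.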

[2] = tested on: oat, wild (wild oat, Avena fatua); assay: Test C preemergence, wild oat; settings: 0 is no effect, 100 is complete control
Method in brief: as §1

[3] = tested on: wheat (Triticum aestivum); assay: Test C postemergence, wheat; settings: visual injury, 0 to 100 scale (0 no effect, 100 complete control)
Method in brief: as §1

[4] = tested on: ducksalad (Heteranthera limosa); assay: Test D flooded paddy test, ducksalad; set-up: key: 0 = no effect, 100 = complete control; settings: 250 g ai/ha, Flood; applied to paddy water at 2-leaf stage; visual rating after 13 days; scale 0 (no effect) to 100 (complete control)
Method in brief: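 2-leaf plants; flood 3 cm over soil; cpd into paddy water; depth maintained; greenhouse 13 d; visual rating vs controls, 0 = no effect, 100 = complete control; dash = no result.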

[5] = tested on: galium (catchweed bedstraw, Galium aparine); assay: Test C postemergence, galium; settings: visual injury, 0 to 100 scale (0 no effect, 100 complete control)
[6] = tested on: oat, wild (wild oat, Avena fatua); assay: Test C postemergence, wild oat; settings: visual injury, 0 to 100 scale (0 no effect, 100 complete control)
[7] = tested on: ryegrass, Italian (Italian ryegrass, Lolium multiflorum); assay: Test C preemergence, Italian ryegrass; settings: 0 is no effect, 100 is complete control
Method in brief: as §1

[8] = tested on: blackgrass (Alopecurus myosuroides); assay: Test C postemergence, blackgrass; settings: visual injury, 0 to 100 scale (0 no effect, 100 complete control)
Method in brief: as §1

| SMILES | Goosegrass plant response rating ([1]; 31 g ai/ha Postemergence) | Goosegrass plant response rating ([1]; 125 g ai/ha Postemergence) | Plant response rating (0 to 100 scale), Oat, Wild ([2]; 31 g ai/ha Preemergence) | Plant response rating (0 to 100 scale), Oat, Wild ([2]; 125 g ai/ha Preemergence) | Wheat plant response rating ([3]; 31 g ai/ha Postemergence) | Wheat plant response rating ([3]; 125 g ai/ha Postemergence) | Plant response rating, Ducksalad [4] | Galium plant response rating ([5]; 31 g ai/ha Postemergence) | Galium plant response rating ([5]; 125 g ai/ha Postemergence) | Oat, Wild plant response rating ([6]; 31 g ai/ha Postemergence) | Oat, Wild plant response rating ([6]; 125 g ai/ha Postemergence) | Plant response rating (0 to 100 scale), Ryegrass, Italian ([7]; 31 g ai/ha Preemergence) | Plant response rating (0 to 100 scale), Ryegrass, Italian ([7]; 125 g ai/ha Preemergence) | Blackgrass plant response rating ([8]; 31 g ai/ha Postemergence) | Blackgrass plant response rating ([8]; 125 g ai/ha Postemergence) |
| --- | --- | --- | --- | --- | --- | --- | --- | --- | --- | --- | --- | --- | --- | --- | --- |
| Cc1c(N2CCC(OC3CC3)C2=O)cc(N(COC(=O)C(C)(C)C)S(=O)(=O)C(F)(F)F)c(C)c1C (stereo not drawn) [Compound 49] | 20 | 80 | 60 | 90 | 70 | 70 | 95 | 80 | 90 | 30 | 70 | 40 | 100 | 30 | 60 |
| Cc1c(N2CCC(OC3CC3)C2=O)cc(N(C(=O)OCC(C)C)S(=O)(=O)C(F)(F)F)c(C)c1C (stereo not drawn) [Compound 50] | 20 | 80 | 70 | 80 | 60 | 80 | 90 | 60 | 100 | 20 | 50 | 50 | 100 | 10 | 40 |
| Cc1c(N2CCC(OC3CCC3)C2=O)cc(N(COC(=O)C(C)(C)C)S(=O)(=O)C(F)(F)F)c(C)c1C (stereo not drawn) [Compound 51] | 0 | 20 | 20 | 50 | 20 | 70 | 85 | 60 | 90 | 0 | 30 | 40 | 100 | 10 | 20 |
| Cc1cc(C)c(N2CCC(OCC3CCC3(F)F)C2=O)cc1NS(=O)(=O)C(F)(F)F (stereo not drawn) [Compound 52] | 0 | 70 | 20 | 90 | 20 | 70 | 90 | 70 | 100 | 10 | 60 | 0 | 80 | 20 | 40 |
| Cc1cc(C)c(N2CCC(OCC3CCCC3)C2=O)cc1NS(=O)(=O)C(F)(F)F (stereo not drawn) [Compound 57] | 70 | 90 | 20 | 80 | 70 | 70 | 90 | 50 | 90 | 10 | 10 | 70 | 90 | 40 | 80 |
